Laboratory results reported in patent US20110251379A1, “COMPOUNDS USEFUL FOR TREATING NEURODEGENERATIVE DISORDERS” (Satori Pharmaceuticals, Inc., priority 2010, published 2011).
Read-outs that look alike come from different tables or passages of the source.

How the values were obtained:
Format in all cases: cell-based
[1] = system: Aβ-40; test: MSD Human (6E10) Ab 3-PLEX elisa, conditioned media of 2B7 cells: Aβ-40; conditions: for IC50: Aβ-40 (superscript b)
Procedure, shortened: (§1)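 2B7 cells, confluent; cpd 5 h, 37° C, 1% DMSO. Media 1:1 blocking buffer, MSD electrochemiluminescence sandwich, o/n 4 degrees C or 2 h RT.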

[2] = system: Aβ-38; test: MSD Human (6E10) Ab 3-PLEX elisa, conditioned media of 2B7 cells: Aβ-38; conditions: Aβ-38 (superscript a)
Procedure, shortened: as §1

[3] = system: Aβ-42; test: MSD Human (6E10) Ab 3-PLEX elisa, conditioned media of 2B7 cells: Aβ-42; conditions: for % Inh. (range): Aβ-42, 20 μM; for IC50: Aβ-42 (superscript c)
Procedure, shortened: as §1

[4] = Homo sapiens, read-out: 50% reduction value
[5] = Homo sapiens, read-out: IC50 range

Row | Structure (SMILES) | IC50 ([2]; read-out: 50% reduction value) | IC50 ([1]; read-out: 50% reduction value) | IC50 ([2]; read-out: IC50 range) | IC50 ([3]; read-out: 50% reduction value) | IC50 [1, 4] | IC50 [2, 4] | IC50 [2, 5] | IC50 [3, 4] | IC50 [3, 5] | other results
1 | CC1CC(C(OC(=O)N(C)C)C(C)(C)O)OC2C1C1(C)CCC34CC35CCC(O)C(C)(C)C5CCC4C1(C)C2O (centres unmarked) [drawing 1217] | 1000 to 10000 nM |  |  |  |  |  |  |  |  | % Inh. (range) ([1]; Aβ-40, 20 μM): E^b (20 μM) E^c (20 μM) (% inhibition of 25-75%); % Inh. (range) [3]: E^b (20 μM) E^c (20 μM) (% inhibition of 25-75%)
2 | CC1CC(C(=O)C(C)(C)O)OC2C1C1(C)CCC34CC35CCC(O)C(C)(C)C5CCC4C1(C)C2O (centres unmarked) [drawing 1218] | 1000 to 10000 nM |  |  |  |  |  |  |  |  | % Inh. (range) ([1]; Aβ-40, 20 μM): E (% inhibition of 25-75%); % Inh. (range) [3]: F (% inhibition of <25%)
3 | CC1CC(C(OC(=O)C2CCC2)C(C)(C)O)OC2C1C1(C)CCC34CC35CCC(OC3CN(C6COC6)CCO3)C(C)(C)C5CCC4C1(C)C2O (centres unmarked) [drawing 1219] | < 1000 nM | < 1000 nM | < 1000 nM | < 1000 nM |  |  |  |  |  | 
4 | CC(C)C(=O)OC(C1CC(C)C2C(O1)C(O)C1(C)C3CCC4C(C)(C)C(OC5CN(C6COC6)CCO5)CCC45CC35CCC21C)C(C)(C)O (centres unmarked) [drawing 1220] | < 1000 nM | 1000 to 10000 nM | < 1000 nM | < 1000 nM |  |  |  |  |  | 
5 | CC(=O)O[C@@H]([C@H]1C[C@@H](C)C2C(O1)C(=O)[C@@]1(C)[C@@H]3CC[C@H]4C(C)(C)[C@@H](O[C@@H]5OC[C@@H](O)[C@H](O)[C@H]5O)CC[C@@]45C[C@@]35CC[C@]21C)C(C)(C)O (some centres unmarked) [drawing 1230] |  |  |  |  | 1000 to 10000 nM | 1000 to 10000 nM | 1000 to 10000 nM | > 10000 nM | < 1000 nM | 
6 | CC(=O)O[C@@H]([C@H]1C[C@@H](C)C2C(O1)[C@H](O)[C@@]1(C)[C@@H]3CC[C@H]4C(C)(C)[C@@H](O)CC[C@@]45C[C@@]35CC[C@]21C)C(C)(C)O (some centres unmarked) [drawing 1231] |  |  |  |  |  | 1000 to 10000 nM |  | 1000 to 10000 nM |  | inhibition at 20 µM ([1]; Homo sapiens, Aβ-40, 20 μM): 25 to 75%
7 | CCO[C@@H](C1C[C@@H](C)[C@H]2C(O1)[C@H](O)[C@@]1(C)C3CC[C@H]4C(C)(C)C(OC5CN(Cc6ccccc6)CCO5)CC[C@@]45C[C@@]35CC[C@]21C)C(C)(C)O (some centres unmarked) [drawing 1282] |  |  |  |  | 1000 to 10000 nM | 1000 to 10000 nM | 1000 to 10000 nM | 1000 to 10000 nM | 1000 to 10000 nM | 
8 | CCO[C@@H](C1C[C@@H](C)[C@H]2C(O1)[C@H](O)[C@@]1(C)C3CC[C@H]4C(C)(C)C(OC(=O)NC5CCNC5=O)CC[C@@]45C[C@@]35CC[C@]21C)C(C)(C)O (some centres unmarked) [drawing 1289] |  |  |  |  | 1000 to 10000 nM | < 1000 nM |  | < 1000 nM | < 1000 nM | IC50 ([1]; read-out: IC50 range): 1000 to 10000 nM
9 | CCO[C@@H](C1C[C@@H](C)[C@H]2C(O1)[C@H](O)[C@@]1(C)C3CC[C@H]4C(C)(C)C(OC(=O)NC5CCNC5=O)CC[C@@]45C[C@@]35CC[C@]21C)C(C)(C)O (some centres unmarked) [drawing 1290] | < 1000 nM | 1000 to 10000 nM |  | < 1000 nM |  |  | < 1000 nM |  |  | IC50 ([1]; read-out: IC50 range): > 10000 nM; IC50 ([3]; read-out: IC50 range): < 1000 nM
10 | CCO[C@@H](C1C[C@@H](C)[C@H]2C(O1)[C@H](O)[C@@]1(C)C3CC[C@H]4C(C)(C)C(OC5CN(Cc6ccccc6)CCO5)CC[C@@]45C[C@@]35CC[C@]21C)C(C)(C)O (some centres unmarked) [drawing 1307] |  | 1000 to 10000 nM | 1000 to 10000 nM |  |  |  |  |  |  | IC50 ([3]; read-out: IC50 range): 1000 to 10000 nM
